According to patent US11198710B2, “Transgenic plant having herbicide resistance” (priority 2016, dated 2021):

Columns and labels:
[1] = system: TaQ8GTC0 protein; assay: Glutathione conjugation activity of the TaQ8GTC0 protein to VLCFAE-inhibiting herbicides (HPLC); assay type: biochemical, wheat (Triticum aestivum)
Protocol: All the VLCFAE-inhibiting herbicides used in this example were added to the reaction mixture as acetone solutions. Conjugation reactions to the VLCFAE-inhibiting herbicides were performed in a reaction mixture (total amount: 200 μl) containing 50 μl of 100 mM potassium phosphate buffer (pH 6.8), 10 μl of 1 mM VLCFAE-inhibiting herbicide, 20 μl of 10 mM reduced glutathione (pH 7.0), 6 μl of the TaQ8GTC0 protein (378 ng in total, PBS buffer solution) and 114 μl of PBS buffer, the reaction was conducted at 30° C. for 15 minutes, the reaction product was filtered through a […], and 50 μl of the filtered solution was injected into HPLC. HPLC analysis conditions were as described below.
Apparatus: Agilent 1100 series
Column: CAPCELL PAK C18 AQ 4.6 mm (i.d.)×250 mm (SHISEIDO)
Mobile phase: acetonitrile/distilled water=5/95 (hold for 5 min)→(4 min)→40/60 (hold for 4 min)→(4 min)→90/10 (hold for 8 min)→(1 min)→5/95 (hold for 4 min) (each solvent containing 0.5% acetic acid)
When the activity of glutathione conjugation to VLCFAE-inhibiting herbicides was analyzed, the amount of glutathione conjugates (GS conjugates) produced was determined based on the amount of VLCFAE-inhibiting herbicides decreased in the reaction solution.
In Example 1, the conjugation activity to cafenstrole was determined via quantification of the compound released by the glutathione conjugation of this herbicide. In addition, peaks of GS conjugate of other herbicides (i.e., metolachlor, alachlor, flufenacet, mefenacet, phentolazamide, indanofan, anilofos, and piperophos) were unknown. When analyzing the glutathione conjugation activities to these herbicides, accordingly, glutathione conjugation reactions were performed to produce GS conjugate in the modified conditions (i.e., more amount of enzyme was added or the conjugation reaction was conducted for longer time) in the beginning to produce glutathione conjugates (GS conjugates), and the peaks were identified with LC/MS.

[2] = system: TaQ8GTC1-R protein; assay: Glutathione conjugation activity of the TaQ8GTC1-R protein to pyroxasulfone (HPLC); assay type: biochemical, wheat; settings: 30° C., 1 hour
Protocol: The glutathione conjugation activity to pyroxasulfone was measured in a reaction mixture (200 μl in total) containing 50 μl of 100 mM potassium phosphate buffer (pH 6.8), 10 μl of 1 mM pyroxasulfone (acetone solution), 20 μl of 10 mM reduced glutathione (pH 7.0), and 120 μl of the TaQ8GTC1-R protein (PBS solution containing 20% glycerol), the reaction was conducted at 30° C. for 1 hour, the reaction product was filtered through a 0.2-μm filter, and 50 μl of the resulting solution was injected into HPLC. A reaction mixture (prepared with the addition of PBS containing 20% glycerol instead of the TaQ8GTC1-R protein) and another reaction mixture (prepared with the addition of PBS containing 20% glycerol and sterile water instead of the TaQ8GTC1-R protein and glutathione, respectively) were prepared as control reaction mixture. […]
Subsequently, the glutathione conjugation activity of the TaQ8GTC1-R protein to pyroxasulfone was examined. […] The amount of the protein added to the enzyme reaction mixture was determined to be 500 ng since about 50% of a total of 10 nmol of the added herbicides was converted into glutathione conjugates when the enzyme activity of the about 400 ng of TaQ8GTC0 (see Example 1) was inspected under the same conditions.

[3] = system: Arabidopsis thaliana plant comprising the TaQ8GTC0 gene introduced therein; assay: Sensitivity of Arabidopsis thaliana comprising the TaQ8GTC0 gene to herbicides on MS agar medium; assay type: in vivo; settings: for growth of the Arabidopsis thaliana plant comprising the TaQ8GTC0 gene: KLB-718 1-1-5, 22° C.
Protocol: A medium was prepared as described below, so as to examine the pyroxasulfone resistance of the Arabidopsis thaliana plant comprising the TaQ8GTC0 gene introduced therein. At the outset, the Murashige-Skoog (MS) media (1 bag), thiamin hydrochloride (3 mg), nicotinic acid (5 mg), pyridoxin hydrochloride (0.5 mg), and sucrose (10 g) were added into a 1-liter beaker, a pH was adjusted to 5.7, the volume of the content was adjusted to 1 liter, and 8 g (0.8%) of agar was added. The resultant was autoclaved and cooled to room temperature, and pyroxasulfone (an acetone solution) was added thereto. A 30-ml fraction thereof was fractionated into a No. 2 square plate to prepare an MS medium containing pyroxasulfone at a given concentration.
Pyroxasulfone sensitivity of transgenic Arabidopsis thaliana plants was tested with the use of the medium prepared above as described below. A necessary amount of Arabidopsis thaliana dry seeds was agitated in 70% ethanol for 2 minutes and in hypochlorous acid containing 0.02% Triton-X-100 for 15 minutes, followed by washing with sterile water 10 times. Subsequently, the seeds were suspended in 1 ml of the autoclaved 0.1% agar solution, the suspension was thoroughly mixed to prepare a homogeneous solution, and a total of 30 seeds were each placed on the medium surface. The resultant was sealed with a surgical tape, allowed to stand at 4° C. for 2 days, and then transferred to 22° C. for germination.
On the basis of the concentrations above, sensitivity of the Arabidopsis thaliana plant comprising the TaQ8GTC0 gene introduced therein to VLCFAE-inhibiting herbicides was examined. The results are show in FIGS. 13 and 14. The photographs shown in FIGS. 13 and 14 were taken after the plants were grown at 22° C. for 14 days.

Cn1nc(C(F)(F)F)c(CS(=O)(=O)C2=NOC(C)(C)C2)c1OC(F)F [Pyroxasulfone, 3-[5-(difluoromethoxy)-1-methyl-3-(trifluoromethyl)pyrazol-4-ylmethylsulfonyl]-4,5-dihydro-5,5-dimethyl-1,2-oxazole]
Enzyme activity (glutathione conjugation) ([1]; 378 ng TaQ8GTC0 protein, 10 μl of 1 mM herbicide in 200 μl, 30° C., 15 minutes, mean ± standard deviation): 11.7 ± 3.7 μmol/mg protein/15 min
GS conjugate of pyroxasulfone (M-15) produced ([1]; out of 10 nmol pyroxasulfone added to the reaction mixture): 4.81 nmol
glutathione conjugation activity to pyroxasulfone ([2]; 500 ng TaQ8GTC1-R protein): did not possess glutathione conjugation activity
pyroxasulfone added to the reaction mixture converted into M-15 ([2]; equivalent in enzyme reaction mixture (500 ng protein) and reaction mixture without enzyme): about 3%
sensitivity of the Arabidopsis thaliana plant comprising the TaQ8GTC0 gene to VLCFAE-inhibiting herbicides ([3]; KLB-718 1-1-5, concentrations of Table 5, 22° C., 14 days): strong resistance
pyroxasulfone resistance relative to wild-type (Columbia-0) ([3]; all 7 lines used in the test): at least 10 times
growth of the Arabidopsis thaliana plant comprising the TaQ8GTC0 gene ([3]; pyroxasulfone 1 μM, 14 days): in the same manner as with the Control
growth of the Arabidopsis thaliana plant comprising the TaQ8GTC0 gene ([3]; pyroxasulfone 10 μM, 14 days): sufficiently grew
